Laboratory results as given in patent publication US9833433B1, “Compositions, methods of use, and methods of treatment” (priority 2013, dated 2017).

Columns and labels:
COX-2 [1] = assay: Hippocampal COX-2 expression in mice (immunoblot); type: in vivo
PGE2 [2] = assay: PGE2 assay in hippocampal tissue (enzyme immunoassay); type: in vivo, mice
Source text: PGE2 in hippocampal tissue was detected using PGE2 enzyme immunoassay kit (Cayman Chemical, Ann Arbor, Mich.) according to the procedure described by the manufacturer (Zhang and Chen, 2008).

spatial memory = assay: Morris water maze test (spatial memory); type: in vivo, mice; details: NS398 10 mg/kg + Δ^9-THC 10 mg/kg once a day for 7 days
Procedure: (§1) The classic Morris water maze and fear conditioning tests were performed to determine spatial and fear memory as described previously (Chen et al., 2012). The ‘open field’ test was conducted to detect the locomotor activity and the bar test was used to detect catalepsy (Egashira et al., 2007).
The classic Morris water maze test was used to determine spatial memory as described previously (Chen et al., 2012). A circular water tank (diameter 120 cm and 75 cm in high) was filled with water and the water was made opaque with non-toxic white paint. A round platform (diameter 15 cm) was hidden 1 cm beneath the surface of the water at the center of a given quadrant of the water tank. COX-2 KO and WT mice received training in the Morris water maze for 5 days without any treatments (naïve). […] For each trial, the mouse was released from the wall of the tank and allowed to search, find, and stand on the platform for 10 seconds within the 60-second trial period. […] During the probe test, the platform was removed from the pool, and the task performances were recorded for 60 seconds by a video-camera and the task performances, including swimming paths, speed, and time spent in each quadrant using an EthoVision video tracking system (Noldus). The time spent in each quadrant was analyzed.

fear memory = assay: Fear conditioning test (contextual memory); type: in vivo, mice; details: NS398 10 mg/kg + Δ^9-THC 10 mg/kg once a day for 7 days
Procedure: as §1
Hippocampus-dependent contextual memory was determined using a fear-conditioning working-station (Coulbourn Instruments, Allentown, Pa.) and a one-trial protocol as describe previously (Chen et al., 2006a; 2006b). Mice were individually put into the shock chamber and allowed to freely explore the environment for 150 seconds. Immediately after this, a tone at 90 dB and 2,800 Hz (CS) was delivered for 30 seconds, and at the last 2 seconds a foot shock at 0.8 mA was delivered to the mice for 2 seconds (US). After the pairing of CS/US, mice were allowed to stay in the chamber for another 30 seconds and then returned to their home cages. Then the animals started receiving vehicle, Δ^9-THC (10 mg/kg), NS398 (10 mg/kg), Δ^9-THC+NS398 once a day for 7 days. Fear memory test was conducted 24 hours after the cessation of the last injections. For contextual conditioning, mice were individually put back into the chamber where they received the shock and the freezing response was recorded for 5 minutes with a sampling method at an interval of 5 seconds. […]

[3] = system: synaptic release of glutamate; assay: Miniature spontaneous EPSCs (mEPSCs) in cultured hippocampal neurons; type: cell-based; details: NS398 10 μM + Δ^9-THC 3 μM; 24 hrs
[4] = system: hippocampal LTP at CA3-CA1 and perforant path synapses; assay: Hippocampal LTP (fEPSP recordings in slices, theta-burst stimulation); type: in vivo, mice
Procedure: Hippocampal LTP both at CA3-CA1 and perforant path synapses were recorded in acutely hippocampal slices and induced by a theta-burst stimulation (TBS) as described previously (Hoffman et al., 2007).
Hippocampal slices were prepared from mice as described previously (Chen et al., 2002; Chen et al., 2012; Fan et al., 2010). Briefly, after decapitation, brains were rapidly removed and placed in cold oxygenated (95% O2, 5% CO2) artificial cerebrospinal fluid (ACSF) containing: 125.0 NaCl, 2.5 KCl, 1.0 MgCl2, 25.0 NaHCO3, 1.25 NaH2PO4, 2.0 CaCl2, 25.0 glucose, 3 pyruvic acid, and 1 ascorbic acid. Slices were cut at a thickness of 350-400 μm and transferred to a holding chamber in an incubator containing ACSF at 36° C. for 0.5 to 1 hour, and maintained in an incubator containing oxygenated ACSF at room temperature (˜22-24° C.) for >1.5 h before recordings. Slices were then transferred to a recording chamber where they were continuously perfused with 95% O2, 5% CO2-saturated standard ACSF at ˜32-34° C. Individual pyramidal and dentate granule neurons were viewed with an upright microscope (Olympus BX51WI) fitted with a 60× water-immersion objective and differential interference contrast (DIC) optics.
Field EPSP (fEPSP) recordings both at CA3-CA1 and perforant path synapses in response to stimuli at a frequency of 0.05 Hz were made using an Axoclamp-2B patch-clamp amplifier (Molecular Devices, CA) in bridge mode. Recording pipettes were pulled from borosilicate glass with a micropipette puller (Sutter Instrument), filled with artificial ACSF (2-4 MΩ). […]

GluA1, GluN2A, GluN2B = assay: Immunostaining of synaptic and extrasynaptic glutamate receptor subunits in hippocampal CA1; details: NS398+Δ^9-THC
[5] = system: dendritic spines of CA1 pyramidal neurons; assay: Two-photon imaging of dendritic spines in CA1 pyramidal neurons; type: in vivo, mice; details: NS398+Δ^9-THC
Procedure: Morphology of dendritic spines in hippocampal CA1 pyramidal neurons was determined in GFP-expressing transgenic mice using a two-photon laser scanning microscope as described previously (Chen et al., 2012). Shape, size, and density of spines were measured from the three-dimensional reconstructions using NeuronStudio Version 0.9.92.
Morphology of dendritic spines in hippocampal CA1 pyramidal neurons was determined in GFP-expressing transgenic mice treated with vehicle, Δ^9-THC or NS398+Δ^9-THC using a two-photon laser scanning microscope (Chameleon hands-free ultrafast Ti: sapphire laser with an Olympus scan head) with Olympus FLUOVIEW 300 software (Chen et al., 2012). Shape (thin, mushroom, or stubby), size, density, and volume of spines were measured from the three-dimensional reconstructions (Z stacks: 1μ step for the whole cell and 0.1μ step for a segment of dendrites) using AutoQuant X2 or 3D deconvolution plugin of Image J (http://bigwww.epfl.ch/algorithms/deconvolutionlab) and NeuronStudio (for 3D reconstruction of imaged dendritic spines, Version 0.9.92; http://research.mssm.edu/cnic/tools-ns.html, CNIC, Mount Sinai School of Medicine). […] The following parameters were used in analyzing and quantifying spines using NeuronStudio: Voxel size was set as 0.029*0.029*0.3 μm. […]

COX-2 [6] = assay: COX-2 expression in neuronal and astroglial cell-enriched cultures; type: cell-based; details: assayed 12 hr after treatments
Procedure: Relative pure hippocampal neurons (astroglial cells<2%), mixed neurons and astroglial cells (astroglial cells ˜10%), and astroglial cell-enriched (astroglial cells>95%), and NG108-15 cell cultures were made as described previously (Sang et al, 2005; Zhang and Chen, 2008).
Primary hippocampal neurons (astroglial cells<2%), mixed neurons and astroglial cells (astroglial cells ˜10%), astroglial cell-enriched (astroglial cells>95%) and NG108-15 cells were cultured as described previously (Sang et al, 2005; Zhang and Chen, 2008). The extent of neurons and astroglial cells in culture were controlled by different treatments, which was estimated by using immunostaining with NeuN, a neuronal marker, glial fibrillary acidic protein (GFAP), an astrocytic marker, and OX-42, a microglial marker, in conjunction with DAPI staining.

PGE2 [7] = details: earlier studies (Burstein et al., 1989; Fairbairn and Pickens; Perez-Reyes et al., 1991); cited from earlier work

CCCCCCC(C)(C)c1ccc([C@@H]2C[C@H](O)CC[C@H]2CCCO)c(O)c1 [CP55,940]
hippocampal COX-2 expression after cannabinoid injection (COX-2 [1]; single i.p. injection, CP55,940 10 mg/kg, detected 4 hrs): more pronounced effects on COX-2 expression and PGE2 synthesis
hippocampal PGE2 production after cannabinoid injection (PGE2 [2]; 10 mg/kg, detected 4 hrs after injection): more pronounced effects on COX-2 expression and PGE2 synthesis

CS(=O)(=O)Nc1ccc([N+](=O)[O-])cc1OC1CCCCC1 [NS398]
effect on Δ^9-THC-impaired spatial memory (spatial memory): occluded by COX-2 inhibition
effect on CP55,940-induced increase in PGE2 (PGE2 [2]; NS398 10 mg/kg 30 min prior to CP 10 mg/kg): could be blocked
effect on Δ^9-THC-impaired fear memory (fear memory): attenuated by COX-2 inhibition
effect on Δ^9-THC-enhanced synaptic release of glutamate [3]: blocked by inhibition of COX-2
effect on LPS-reduced hippocampal LTP ([4]; LPS 3 mg/kg + NS398 10 mg/kg once a day for 7 days): prevented
effect on Δ^9-THC-decreased hippocampal LTP ([4]; NS398 10 mg/kg 30 min before Δ^9-THC 10 mg/kg, 7 days, CA3-CA1 and perforant path): rescued decreased hippocampal LTP
effect on Δ^9-THC-decreased glutamate receptor expression (GluA1, GluN2A, GluN2B): prevented by inhibition of COX-2
effect on Δ^9-THC-decreased dendritic spine density [5]: prevented by inhibition of COX-2

Cc1c(C(=O)NN2CCCCC2)nn(-c2ccc(Cl)cc2Cl)c1-c1ccc(Cl)cc1 [Rimonabant]
effect on Δ^9-THC-induced increase in COX-2 in the hippocampus (COX-2 [1]; RIM 5 mg/kg 30 min prior to Δ^9-THC 10 mg/kg, detected 4 hr after Δ^9-THC): blocked
effect on Δ^9-THC-induced increase in COX-2 in neurons and astroglial cells in culture (COX-2 [6]): blocked

COc1ccc2c(c1)c(CC(=O)O)c(C)n2C(=O)c1ccc(Cl)cc1 [indomethacin]
effect on marijuana- or Δ^9-THC-induced elevation of PGE2 in circulation and the brain (PGE2 [7]): could be antagonized
